Data taken from patent US20240189266A1, “Lactoyl Amino Acids for the Treatment of Metabolic Disease” (The Board of Trustees of the Leland Stanford Junior …, priority 2021, published 2024).

Key:
[1] = Plasma Lac-Phe level after intraperitoneal injection; assay type: in vivo; conditions: C57BL/6J DIO, mouse, 50 mg/kg IP, DIO mice, mean±SEM, read-out: plasma levels 30 min post injection
Protocol: General animal information. Animal experiments were performed according to procedure approved by the Stanford University Administrative Panel on Laboratory Animal Care (APLAC). Mice were maintained in 12-hr light-dark cycles at 22° C. and ˜50% relative humidity and fed a standard irradiated rodent chow diet. Where indicated, high-fat diet (D12492, Research Diets 60% kcal from fat) was used. C57BL/6J (stock no. 000664) and C57BL/6J DIO mice (stock no. 380050) were purchased from Jackson Laboratory. C57BL/6NCrl (stock no. 027) mice were purchased from Charles River Laboratory. Whole body CNDP2 knockout mice (catalog number, C57BL/6NCrl-Cndp2em1(IMPC)Mbp/Mmucd, RRID: MMRRC_043492-UCD) were obtained from the Mutant Mouse Regional Resource Center, a NCRR-NIH funded strain repository. For in vivo injection of mice with compounds including Lac-Phe, lactate, and phenylalanine, compounds were dissolved in 18:1:1 (by volume) of saline/Kolliphor EL (Sigma Aldrich)/DMSO. Compounds were administered to mice daily via intraperitoneal injections at 5 μl/g body weight at the indicated doses. For all injection experiments, mice were mock injected with the vehicle for 3-5 days until body weights have stabilized. For glucose tolerance tests, mice were fasted for 6 hours then injected with glucose at 10 μl/g body weight. A dose of 1 g/kg was used for the GTT of vehicle and Lac-Phe treated obese mice. […]

[2] = Acute Lac-Phe administration to DIO mice in metabolic chambers; assay type: in vivo; conditions: single 50 mg/kg IP
Protocol: (§1) General animal information. Animal experiments were performed according to procedure approved by the Stanford University Administrative Panel on Laboratory Animal Care (APLAC). Mice were maintained in 12-hr light-dark cycles at 22° C. and ˜50% relative humidity and fed a standard irradiated rodent chow diet. Where indicated, high-fat diet (D12492, Research Diets 60% kcal from fat) was used. C57BL/6J (stock no. 000664) and C57BL/6J DIO mice (stock no. 380050) were purchased from Jackson Laboratory. C57BL/6NCrl (stock no. 027) mice were purchased from Charles River Laboratory. Whole body CNDP2 knockout mice (catalog number, C57BL/6NCrl-Cndp2em1(IMPC)Mbp/Mmucd, RRID: MMRRC_043492-UCD) were obtained from the Mutant Mouse Regional Resource Center, a NCRR-NIH funded strain repository. For in vivo injection of mice with compounds including Lac-Phe, lactate, and phenylalanine, compounds were dissolved in 18:1:1 (by volume) of saline/Kolliphor EL (Sigma Aldrich)/DMSO. Compounds were administered to mice daily via intraperitoneal injections at 5 μl/g body weight at the indicated doses. For all injection experiments, mice were mock injected with the vehicle for 3-5 days until body weights have stabilized. For glucose tolerance tests, mice were fasted for 6 hours then injected with glucose at 10 μl/g body weight. A dose of 1 g/kg was used for the GTT of vehicle and Lac-Phe treated obese mice.

[3] = Chronic 10-day Lac-Phe administration to DIO mice (food intake, body weight, GTT, tissue weights); assay type: in vivo
Protocol: as §1

[4] = 7-day comparison of Lac-Phe with lactate and phenylalanine in DIO mice; assay type: in vivo; conditions: 50 mg/kg IP daily, 13-week male DIO mice
Protocol: as §1

[5] = 9-day Lac-Phe treatment of 18 week DIO mice (FIG. 17); assay type: in vivo; conditions: 50 mg/kg/day IP
Protocol: as §1

[6] = tested on: AgRP neurons in the arcuate nucleus of hypothalamus (ARH); test: Whole-cell patch-clamp slice electrophysiology, AgRP neurons; assay type: cell-based, mice
Protocol: (§2) Slice electrophysiology studies. Several genetic mouse strains were used for electrophysiological recordings from identified neural populations. These included AgRP-IRES-Cre/Rosa26-LSL-tdTOMATO mice for recordings from AgRP neurons in the arcuate nucleus of hypothalamus (ARH); POMC-CreER/Rosa26-LSL-tdTOMATO mice (with 200 mg/kg tamoxifen induction at 8-12 weeks) were used for recordings from POMC neurons in the ARH; SF1-Cre/Rosa26-LSL-tdTOMATO mice were used for recordings from SF1 neurons in the ventromedial hypothalamus (VMH); TPH2-CreER/Rosa26-LSL-tdTOMATO mice (with 200 mg/kg tamoxifen induction at 8-12 weeks) were used for recording from 5-HT neurons in the dorsal raphe nucleus (DRN). Mice (males and females, 8-16 weeks old) were anesthetized with isoflurane and transcardially perfused with a modified ice-cold sucrose-based cutting solution (pH 7.4; containing 10 mM NaCl, 25 mM NaHCO3, 195 mM sucrose, 5 mM glucose, 2.5 mM KCl, 1.25 mM NaH2PO4, 2 mM sodium pyruvate, 0.5 mM CaCl2, and 7 mM MgCl2, bubbled continuously with 95% O2 and 5% CO2). The mice were then decapitated, and the entire brain was removed and immediately submerged in the cutting solution. Coronal slices (220 μm) were cut with a Microm HM 650V vibratome (Thermo Scientific). Brain slices containing the desired region (ARH, VMH, or DRN) were collected for each corresponding mouse, and recordings were made at levels throughout this brain region. The slices were recovered for ˜30 minutes at 32° C. and then maintained at room temperature for another 1 hour in oxygenated (95% O2 and 5% CO2) artificial cerebrospinal fluid (ACSF, pH 7.4; containing 126 mM NaCl, 2.5 mM KCl, 2.4 mM CaCl2, 1.2 mM NaH2PO4, 1.2 mM MgCl2, 11.1 mM glucose, and 21.4 mM NaHCO3) before recording.
(§3) Slices were transferred to the recording chamber at 32° C. and perfused continuously with oxygenated ACSF at a flow rate of 1.8-2.0 ml/min. […] Recordings were made using a MultiClamp 700B amplifier (Axon Instruments), sampled using Digidata 1440A, and analyzed offline with pClamp 10.3 software (Axon Instruments). Series resistance was monitored during the recording, and the values were generally <10 MO and were not compensated. The liquid junction potential was monitored and corrected. […] To ensure each recorded neuron receive same amount of Lac-Phe, the neurons located on the surface of the slice were selected to record and the puff pipette was always put at a 100 μm horizontal and 100 μm vertical distance from the recorded neurons. […] Each neuron was recorded for at least 1 minute at baseline and only the neurons with stable baseline were used to test the Lac-Phe treatment. […]

POMC neurons in the ARH = test: Whole-cell patch-clamp slice electrophysiology, POMC neurons; assay type: cell-based, mice
Protocol: as §2, with “Coronal slices (220 μm) were cut with a Microm HM 650V vibratome (Thermo Scientific). Brain slices containing the desired region (ARH, VMH, or DRN) were collected for each corresponding mouse, and recordings were made at levels throughout this brain region. The slices were recovered for ˜30 minutes at 32° C. and then maintained at room temperature for another 1 hour in oxygenated (95% O2 and 5% CO2) artificial cerebrospinal fluid (ACSF, pH 7.4; containing 126 mM NaCl, 2.5 mM KCl, 2.4 mM CaCl2, 1.2 mM NaH2PO4, 1.2 mM MgCl2, 11.1 mM glucose, and 21.4 mM NaHCO3) before recording.” left out
as §3

[7] = tested on: serotonin (5-HT)-positive neurons in the dorsal raphe nuclei (DRN); test: Whole-cell patch-clamp slice electrophysiology, 5-HT neurons; assay type: cell-based, mice; conditions: 50 μM
Protocol: (§4) Slice electrophysiology studies. Several genetic mouse strains were used for electrophysiological recordings from identified neural populations. These included AgRP-IRES-Cre/Rosa26-LSL-tdTOMATO mice for recordings from AgRP neurons in the arcuate nucleus of hypothalamus (ARH); POMC-CreER/Rosa26-LSL-tdTOMATO mice (with 200 mg/kg tamoxifen induction at 8-12 weeks) were used for recordings from POMC neurons in the ARH; SF1-Cre/Rosa26-LSL-tdTOMATO mice were used for recordings from SF1 neurons in the ventromedial hypothalamus (VMH); TPH2-CreER/Rosa26-LSL-tdTOMATO mice (with 200 mg/kg tamoxifen induction at 8-12 weeks) were used for recording from 5-HT neurons in the dorsal raphe nucleus (DRN). […]
(§5) Slices were transferred to the recording chamber at 32° C. and perfused continuously with oxygenated ACSF at a flow rate of 1.8-2.0 ml/min. […] Recordings were made using a MultiClamp 700B amplifier (Axon Instruments), sampled using Digidata 1440A, and analyzed offline with pClamp 10.3 software (Axon Instruments). Series resistance was monitored during the recording, and the values were generally <10 MO and were not compensated. The liquid junction potential was monitored and corrected. […] Each neuron was recorded for at least 1 minute at baseline and only the neurons with stable baseline were used to test the Lac-Phe treatment. […]

[8] = tested on: SF1-positive neurons of the ventromedial hypothalamic nucleus (VMH); test: Whole-cell patch-clamp slice electrophysiology, SF1 neurons; assay type: cell-based, mice; conditions: 50 μM
Protocol: as §4, §5

RAW264.7 cells = test: In vitro Lac-Phe production assay with added lactate, RAW264.7; assay type: cell-based, murine; conditions: lactate 25 mM in conditioned media
Protocol: Cell line cultures. All cell lines were obtained from ATCC and grown at 37° C. with 5% CO2. RAW 264.7, HEK293T, HEK293A, C2C12, F442A, 3T3-L1, Caco2, and SW48 were grown in Dulbecco's modified Eagle's medium (DMEM) with 10% fetal bovine serum (FBS) and penicillin/streptomycin (pen/strep). AML-12 cells were grown in DMEM with 10% FBS and pen/strep supplemented with Insulin-Transferrin-Selenium. T84 cells were grown in Dulbecco's modified Eagle's medium/nutrient mixture F-12 (DMEM/F-12) with 5% FBS and pen/strep.
In vitro Lac-Phe Production assay. Cells were plated in 12-well plates at 70-80% confluence. The next day, cells were washed two times with PBS and incubated in 0.5 ml serum free media. After overnight incubation, 400 μl of media was removed and 20 μl of 1 M hydrochloride added to acidify the media and protonate Lac-Phe. 400 μl of ethyl acetate was added into each sample and vortexed for 30 seconds to extract Lac-Phe into the organic layer. 300 μl from the top layer was transferred to a new Eppendorf tube and dried down under a stream of nitrogen. The residue was re-suspended in 100 ul of an 80:20 mixture of acetonitrile/water. Cells were kept on ice to harvest the lysate. 150 μl of PBS was added into each well and the cells scraped into an Eppendorf tube. This step was repeated again to ensure all cells have been harvested. […]

[9] = tested on: primary peritoneal macrophages; test: In vitro Lac-Phe production assay with added lactate, primary macrophages; assay type: cell-based, mice; conditions: lactate 25 mM in conditioned media
Protocol: Primary peritoneal macrophage isolation. Mice were injected with 2 ml of 3% brewer thioglycollate medium (Fisher, B111716) and the macrophage elicitation allowed to proceed for 3 days. For the macrophage isolation, mice were euthanized with CO2 and the abdominal skin peeled back to expose the peritoneal wall. 10 ml of ice-cold calcium and magnesium free DPBS was injected into the peritoneal cavity, taking care not to puncture the organs. The mice were gently massaged and the fluid aspirated from the peritoneum using the same syringe and needle. The fluid was dispensed into a 50 ml falcon tube on ice. Cells were then centrifuged at 4° C. for 10 minutes at 400×g. The supernatant was discarded and the cells re-suspended in cold DMEM/F-12 containing 10% FBS and pen/strep. Cells were allowed to adhere in the incubator for at least 2 hours then washed three times in warm PBS to remove non-adherent cells. Fresh media was added to the cells and experiments performed within 1-2 days after the isolation.
In vitro Lac-Phe Production assay. Cells were plated in 12-well plates at 70-80% confluence. The next day, cells were washed two times with PBS and incubated in 0.5 ml serum free media. After overnight incubation, 400 μl of media was removed and 20 μl of 1 M hydrochloride added to acidify the media and protonate Lac-Phe. […]

[10] = 50 mg/kg/day IP, 10 days, DIO mice

C[C@H](O)C(=O)N[C@@H](Cc1ccccc1)C(=O)O [Lac-Phe, N-lactoyl-phenylalanine]
concentration at 30 min [1]: 3.8 µM
suppression of food intake compared to vehicle-treated mice ([2]; 12 h post-administration): 52%
carbon dioxide production (VCO2) ([2]; 12 hr): did not alter
oxygen consumption (VO2) ([2]; 12 hr): did not alter
respiratory exchange ratio (RER) ([2]; 12 hr): did not alter
food intake over 12 h post-administration ([2]; mean±SEM (vehicle 6.4±0.6)): 3.0±1.0 kcal/mouse
ambulatory activity ([2]; vs vehicle): not different between groups
brown fat (BAT) mass vs vehicle [3, 10]: −41%
change in total body weight [3, 10]: −7%
epididymal fat (eWAT) mass vs vehicle [3, 10]: −20%
subcutaneous inguinal fat (iWAT) mass vs vehicle [3, 10]: −41%
total lean mass, estimated by weights of other organs [3, 10]: unaffected
reduction in body weight ([3]; 50 mg/kg/day IP, 10 days, DIO mice, mean±SEM): -2.8 ± 1.1 g
food intake, chronic treatment ([3]; 50 mg/kg/day IP, 10 days, DIO mice, mean±SEM (vehicle 2.9±0.1)): 2.1±0.1 g/mouse/day
glucose tolerance test ([3]; day 10, 1 g/kg glucose, 6 h fast, vs vehicle): improved glucose clearance
body weight vs control [4]: suppressed
food intake vs control [4]: suppressed
glucose homeostasis (glucose tolerance test) ([5]; 1 g/kg glucose, 6 h fast): improves glucose homeostasis
body weight ([5]; 9-day, 18 week male DIO mice): suppresses
appetite (cumulative food intake) ([5]; 18 week male DIO mice): suppresses
effect on AgRP neurons (firing frequency, resting membrane potential) ([6]; 50 μM): rapidly inhibited
hyperpolarization of AgRP neurons in presence of TTX, DNQX, D-AP5, bicuculline ([6]; 50 μM with inhibitor cocktail): persisted
AgRP neurons hyperpolarized (response ratio) ([6]; all concentrations tested, baseline or inhibitor-treated): > 70%
concentration showing inhibitory activity on AgRP neurons ([6]; dose response, lowest active concentration): ≥ 1 µM
effect on POMC neurons (firing frequency, depolarization) (POMC neurons in the ARH; 50 μM): rapidly activate
depolarization of POMC neurons in presence of inhibitor cocktail (POMC neurons in the ARH; 50 μM with inhibitor cocktail): persisted
concentration required to activate POMC neurons (POMC neurons in the ARH; dose response): at least 20 μM
excitability of 5-HT-positive neurons [7]: No effect
excitability of SF1-positive neurons [8]: No effect

C[C@H](O)C(=O)[O-].[Na+] [lactate, sodium L-lactate]
body weight vs control [4]: identical to vehicle treated mice
food intake vs control [4]: identical to vehicle treated mice
increase of extracellular levels of Lac-Phe (RAW264.7 cells): +85%
increase of extracellular levels of Lac-Phe [9]: +200%

N[C@@H](Cc1ccccc1)C(=O)O [phenylalanine, L-Phenylalnine]
body weight vs control [4]: identical to vehicle treated mice
food intake vs control [4]: identical to vehicle treated mice
